{
  "source": "PubChem BioAssay (NCI)",
  "assay_in_all_cases": "inhibition of tumour cell growth, NCI panel, 48 h",
  "key": {"HL-60(TB) leukemia": {"system": "HL-60(TB) leukemia"}, "HCT-116 colon": {"system": "HCT-116 colon"}, "NCI-H226 lung": {"system": "NCI-H226 lung"}, "MOLT-4 leukemia": {"system": "MOLT-4 leukemia"}, "RXF 393 renal": {"system": "RXF 393 renal"}, "HOP-62 NSCLC": {"system": "HOP-62 NSCLC"}, "OVCAR-3 ovarian": {"system": "OVCAR-3 ovarian"}, "U251 CNS": {"system": "U251 CNS"}, "SNB-75 CNS": {"system": "SNB-75 CNS"}, "KM12 colon": {"system": "KM12 colon"}, "SW-620 colon": {"system": "SW-620 colon"}, "PC-3 prostate": {"system": "PC-3 prostate"}, "COLO 205 colon": {"system": "COLO 205 colon"}, "T-47D breast": {"system": "T-47D breast"}, "HOP-18 NSCLC": {"system": "HOP-18 NSCLC"}, "UO-31 renal": {"system": "UO-31 renal"}, "A549 NSCLC": {"system": "A549 NSCLC"}, "KM20L2 colon": {"system": "KM20L2 colon"}, "DMS 114 small cell lung": {"system": "DMS 114 small cell lung"}, "TK-10 renal": {"system": "TK-10 renal"}, "LXFL 529 NSCLC": {"system": "LXFL 529 NSCLC"}, "DMS 273 small cell lung": {"system": "DMS 273 small cell lung"}, "OVCAR-8 ovarian": {"system": "OVCAR-8 ovarian"}, "CCRF-CEM leukemia": {"system": "CCRF-CEM leukemia"}, "SK-OV-3 ovarian": {"system": "SK-OV-3 ovarian"}, "SK-MEL-2 melanoma": {"system": "SK-MEL-2 melanoma"}, "SK-MEL-28 melanoma": {"system": "SK-MEL-28 melanoma"}, "NCI-H460 lung": {"system": "NCI-H460 lung"}, "SF-295 CNS": {"system": "SF-295 CNS"}, "RPMI-8226 leukemia": {"system": "RPMI-8226 leukemia"}, "SN12C renal": {"system": "SN12C renal"}, "HCT-15 colon": {"system": "HCT-15 colon"}, "IGROV1 ovarian": {"system": "IGROV1 ovarian"}, "UACC-62 melanoma": {"system": "UACC-62 melanoma"}, "M14 melanoma": {"system": "M14 melanoma"}, "HCC-2998 colon": {"system": "HCC-2998 colon"}, "ACHN renal": {"system": "ACHN renal"}, "UACC-257 melanoma": {"system": "UACC-257 melanoma"}, "SK-MEL-5 melanoma": {"system": "SK-MEL-5 melanoma"}, "BT-549 breast": {"system": "BT-549 breast"}, "XF 498 CNS": {"system": "XF 498 CNS"}, "OVCAR-4 ovarian": {"system": "OVCAR-4 ovarian"}, "DU-145 prostate": {"system": "DU-145 prostate"}, "OVCAR-5 ovarian": {"system": "OVCAR-5 ovarian"}, "SF-268 CNS": {"system": "SF-268 CNS"}, "SR leukemia": {"system": "SR leukemia"}, "MALME-3M melanoma": {"system": "MALME-3M melanoma"}, "SNB-78 CNS": {"system": "SNB-78 CNS"}, "M19-MEL melanoma": {"system": "M19-MEL melanoma"}, "K-562 leukemia": {"system": "K-562 leukemia"}, "SF-539 CNS": {"system": "SF-539 CNS"}, "RXF-631 renal": {"system": "RXF-631 renal"}, "A498 renal": {"system": "A498 renal"}, "MCF7 breast": {"system": "MCF7 breast"}, "HT29 colon": {"system": "HT29 colon"}, "786-0 renal": {"system": "786-0 renal"}, "HS 578T breast": {"system": "HS 578T breast"}, "SNB-19 CNS": {"system": "SNB-19 CNS"}, "MDA-MB-435": {"system": "MDA-MB-435"}, "NCI-H522 lung": {"system": "NCI-H522 lung"}, "EKVX NSCLC": {"system": "EKVX NSCLC"}, "CAKI-1 renal": {"system": "CAKI-1 renal"}, "NCI-H23 lung": {"system": "NCI-H23 lung"}, "MDA-N": {"system": "MDA-N"}, "HOP-92 NSCLC": {"system": "HOP-92 NSCLC"}, "MDA-MB-231 breast": {"system": "MDA-MB-231 breast"}, "DLD-1 colon": {"system": "DLD-1 colon"}, "LOX IMVI melanoma": {"system": "LOX IMVI melanoma"}},
  "note": "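Assay format: 96-well plates, 48-hour exposure. TGI marks complete inhibition of growth.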",
  "data": [
    {"smiles": "COc1ccccc1NC(=O)C1=C(C)NC(C)=C(C(=O)Nc2ccccc2OC)C1c1ccco1", "values": [
      {"measurement": "TGI", "setting": "HL-60(TB) leukemia", "result": 8.51, "unit": "µM"},
      {"measurement": "TGI", "setting": "HCT-116 colon", "result": 37.4, "unit": "µM"},
      {"measurement": "TGI", "setting": "NCI-H226 lung", "result": 33.1, "unit": "µM"},
      {"measurement": "TGI", "setting": "MOLT-4 leukemia", "result": 52.7, "unit": "µM"},
      {"measurement": "TGI", "setting": "RXF 393 renal", "result": 10.6, "unit": "µM"},
      {"measurement": "TGI", "setting": "HOP-62 NSCLC", "result": 74.6, "unit": "µM"},
      {"measurement": "TGI", "setting": "OVCAR-3 ovarian", "result": 9.02, "unit": "µM"},
      {"measurement": "TGI", "setting": "U251 CNS", "result": 47, "unit": "µM"},
      {"measurement": "TGI", "setting": "SNB-75 CNS", "result": 29.7, "unit": "µM"},
      {"measurement": "TGI", "setting": "KM12 colon", "result": "> 38.4", "unit": "µM"},
      {"measurement": "TGI", "setting": "SW-620 colon", "result": "> 100", "unit": "µM"},
      {"measurement": "TGI", "setting": "PC-3 prostate", "result": "> 100", "unit": "µM"},
      {"measurement": "TGI", "setting": "COLO 205 colon", "result": 23, "unit": "µM"},
      {"measurement": "TGI", "setting": "T-47D breast", "result": "> 100", "unit": "µM"},
      {"measurement": "TGI", "setting": "HOP-18 NSCLC", "result": 73.9, "unit": "µM"},
      {"measurement": "TGI", "setting": "UO-31 renal", "result": "> 83.5", "unit": "µM"},
      {"measurement": "TGI", "setting": "A549 NSCLC", "result": "> 100", "unit": "µM"},
      {"measurement": "TGI", "setting": "KM20L2 colon", "result": 13, "unit": "µM"},
      {"measurement": "TGI", "setting": "DMS 114 small cell lung", "result": 7.53, "unit": "µM"},
      {"measurement": "TGI", "setting": "TK-10 renal", "result": "> 79.7", "unit": "µM"},
      {"measurement": "TGI", "setting": "LXFL 529 NSCLC", "result": "> 100", "unit": "µM"},
      {"measurement": "TGI", "setting": "DMS 273 small cell lung", "result": "> 100", "unit": "µM"},
      {"measurement": "TGI", "setting": "OVCAR-8 ovarian", "result": "> 100", "unit": "µM"},
      {"measurement": "TGI", "setting": "CCRF-CEM leukemia", "result": 59.8, "unit": "µM"},
      {"measurement": "TGI", "setting": "SK-OV-3 ovarian", "result": "> 76.3", "unit": "µM"},
      {"measurement": "TGI", "setting": "SK-MEL-2 melanoma", "result": 31.4, "unit": "µM"},
      {"measurement": "TGI", "setting": "SK-MEL-28 melanoma", "result": "> 92", "unit": "µM"},
      {"measurement": "TGI", "setting": "NCI-H460 lung", "result": "> 43.9", "unit": "µM"},
      {"measurement": "TGI", "setting": "SF-295 CNS", "result": "> 44.2", "unit": "µM"},
      {"measurement": "TGI", "setting": "RPMI-8226 leukemia", "result": 76.1, "unit": "µM"},
      {"measurement": "TGI", "setting": "SN12C renal", "result": 89.9, "unit": "µM"},
      {"measurement": "TGI", "setting": "HCT-15 colon", "result": "> 100", "unit": "µM"},
      {"measurement": "TGI", "setting": "IGROV1 ovarian", "result": "> 100", "unit": "µM"},
      {"measurement": "TGI", "setting": "UACC-62 melanoma", "result": 22.9, "unit": "µM"},
      {"measurement": "TGI", "setting": "M14 melanoma", "result": 31.9, "unit": "µM"},
      {"measurement": "TGI", "setting": "HCC-2998 colon", "result": 40.7, "unit": "µM"},
      {"measurement": "TGI", "setting": "ACHN renal", "result": "> 100", "unit": "µM"},
      {"measurement": "TGI", "setting": "UACC-257 melanoma", "result": 43.4, "unit": "µM"},
      {"measurement": "TGI", "setting": "SK-MEL-5 melanoma", "result": 15.4, "unit": "µM"},
      {"measurement": "TGI", "setting": "BT-549 breast", "result": "> 100", "unit": "µM"},
      {"measurement": "TGI", "setting": "XF 498 CNS", "result": "> 100", "unit": "µM"},
      {"measurement": "TGI", "setting": "OVCAR-4 ovarian", "result": 88.2, "unit": "µM"},
      {"measurement": "TGI", "setting": "DU-145 prostate", "result": "> 100", "unit": "µM"},
      {"measurement": "TGI", "setting": "OVCAR-5 ovarian", "result": "> 100", "unit": "µM"},
      {"measurement": "TGI", "setting": "SF-268 CNS", "result": "> 97.3", "unit": "µM"},
      {"measurement": "TGI", "setting": "SR leukemia", "result": 15.3, "unit": "µM"},
      {"measurement": "TGI", "setting": "MALME-3M melanoma", "result": "> 100", "unit": "µM"},
      {"measurement": "TGI", "setting": "SNB-78 CNS", "result": "> 100", "unit": "µM"},
      {"measurement": "TGI", "setting": "M19-MEL melanoma", "result": "> 100", "unit": "µM"},
      {"measurement": "TGI", "setting": "K-562 leukemia", "result": "> 63.5", "unit": "µM"},
      {"measurement": "TGI", "setting": "SF-539 CNS", "result": 20.7, "unit": "µM"},
      {"measurement": "TGI", "setting": "RXF-631 renal", "result": "> 92.6", "unit": "µM"},
      {"measurement": "TGI", "setting": "A498 renal", "result": 38.4, "unit": "µM"},
      {"measurement": "TGI", "setting": "MCF7 breast", "result": "> 100", "unit": "µM"},
      {"measurement": "TGI", "setting": "HT29 colon", "result": 14.7, "unit": "µM"},
      {"measurement": "TGI", "setting": "786-0 renal", "result": "> 77", "unit": "µM"},
      {"measurement": "TGI", "setting": "HS 578T breast", "result": 9, "unit": "µM"},
      {"measurement": "TGI", "setting": "SNB-19 CNS", "result": 67.6, "unit": "µM"},
      {"measurement": "TGI", "setting": "MDA-MB-435", "result": 19.8, "unit": "µM"},
      {"measurement": "TGI", "setting": "NCI-H522 lung", "result": 8.6, "unit": "µM"},
      {"measurement": "TGI", "setting": "EKVX NSCLC", "result": "> 83.7", "unit": "µM"},
      {"measurement": "TGI", "setting": "CAKI-1 renal", "result": "> 24.1", "unit": "µM"},
      {"measurement": "TGI", "setting": "NCI-H23 lung", "result": 32.4, "unit": "µM"},
      {"measurement": "TGI", "setting": "MDA-N", "result": "> 100", "unit": "µM"},
      {"measurement": "TGI", "setting": "HOP-92 NSCLC", "result": 24.2, "unit": "µM"},
      {"measurement": "TGI", "setting": "MDA-MB-231 breast", "result": "> 100", "unit": "µM"},
      {"measurement": "TGI", "setting": "DLD-1 colon", "result": "> 100", "unit": "µM"},
      {"measurement": "TGI", "setting": "LOX IMVI melanoma", "result": "> 100", "unit": "µM"}
    ]}
  ]
}
